The series can be described thus: Human HepG2 cell viability assay in 384 well format. Also on record: dose 125 nL, time 70.5 hour; concentration not given beside the values. The class given is toxicity, cell-based. The settings on record: HepG2 cells, read-out: Inhibition.

For the molecule `CNC(=O)C1Cc2ccccc2CN1CCC#N` (stereo not given), the cytotoxicity at 70.5 h was found to be 4.8%. Take `COc1ccccc1N(C)S(=O)(=O)c1cc(C(=O)O)cs1`: the cytotoxicity at 70.5 h is -4.98%. On to `CC(C)N1CCC(NC(=O)NC2CCOc3ccc(Br)cc32)CC1` (stereo not given), for which the cytotoxicity at 70.5 h is 0.813%. For `Cc1ncc2c(n1)CN(Cc1cccc3c1OCCO3)CC2` the value was -1.1%. As for `COCC(C)(CCO)NC(=O)Nc1cccc(F)c1C` (stereo not given), the cytotoxicity at 70.5 h worked out at 21.4%. The figure for `CC(=O)N1CCCC1c1cccc(C)c1C` (stereo not given) is -4.04%; for `CN(CCCc1n[nH]c(N)c1C#N)C(=O)Nc1cc(Cl)cc(Cl)c1` it is -11.9%. `NC(=O)C1CCCCN1C(=O)c1ccc(Br)s1` (stereo not given): the cytotoxicity at 70.5 h is -5.06%.

Regarding `Cc1nn(C)c(C)c1CCC(=O)Nc1nnc(C2CC2)s1`, the cytotoxicity at 70.5 h is 22.3%.

Turning to `CC(NC(=O)NCCNc1cccc(F)c1C#N)c1cccs1` (stereo not given), the cytotoxicity at 70.5 h was -4.54%. The figure for `CS(=O)(=O)NCC1CCCCN1C(=O)c1ccc(Br)s1` (stereo not given) is -6.12%; for `OC1CCN(c2ccc(CNc3nc4ccccc4o3)cc2F)CC1` it is -9.97%.

In the case of `CC(CNC(=O)C1(c2ccc(F)cc2)CC1)CN1CCCC1=O` (stereo not given), the cytotoxicity at 70.5 h amounted to 15.4%. Consider `OC1CCN(c2ccc(CNc3nc4ccccc4s3)cc2F)CC1`, for which the cytotoxicity at 70.5 h was -9.14%.

For `NC(=O)NCC1CCCCN1C(=O)c1ccc(Br)s1` (stereo not given), the cytotoxicity at 70.5 h was -8.99%.

For the molecule `NC(=O)NCC1CCCCN1C(=O)c1ccc(Cl)s1` (stereo not given), the cytotoxicity at 70.5 h was -8.02%. Regarding `Cc1c(C(=O)NC2(C#N)CCSC2)nnn1-c1ccccc1Cl` (stereo not given), the cytotoxicity at 70.5 h is -5.68%. For the molecule `CC(NC(=O)NCCNc1cccc(F)c1C#N)c1nccs1` (stereo not given), the cytotoxicity at 70.5 h is -2.26%.

Consider `CN(C(=O)COCc1ccccc1)C1CCN(CC2CCOC2)CC1` (stereo not given), for which the cytotoxicity at 70.5 h is -7.68%. For `CN1CCN(S(C)(=O)=O)c2ccc(F)cc21`, the cytotoxicity at 70.5 h was -11.1%.

Turning to `O=C(Nc1cc(C2CCOCC2)[nH]n1)c1ccc(Cl)cn1`, the cytotoxicity at 70.5 h is -1.48%. Turning to `CC(C#N)CNS(=O)(=O)c1ccc(F)c(Br)c1` (stereo not given), the cytotoxicity at 70.5 h is -7.42%. For `O=c1c2cccnc2cnn1CC(O)c1cccc(Cl)c1` (stereo not given), the cytotoxicity at 70.5 h is 13.3%. For `N#CC1(NC(=O)c2ccn(-c3ccccc3Cl)n2)CCSC1` (stereo not given) the value was -10.3%; for `COc1ncnc(N(C)C)c1NC(=O)Cc1c[nH]c2ccc(F)cc12`, -7.3%. The figure for `Cc1ccc(S(=O)(=O)NC(C)C#N)cc1Br` (stereo not given) is -3.42%. The figure for `COc1cc(F)c(S(=O)(=O)N2c3ncccc3NC(=O)C2C)cc1OC` (stereo not given) is -5.44%. Turning to `O=C(C[S+]([O-])Cc1ccc(Cl)cc1Cl)N1CCc2sccc2C1` (stereo not given), the cytotoxicity at 70.5 h is -3.09%. `O=C(Nc1cc(C2CCOCC2)[nH]n1)c1cc[nH]n1`: the cytotoxicity at 70.5 h was -4.17%. `CCN(Cc1ccoc1)C(=O)c1cc(C)c(C)c(S(N)(=O)=O)c1`: the cytotoxicity at 70.5 h is -9.16%. For `CCc1ccc(C(=O)N(CC)Cc2ccoc2)cc1S(C)(=O)=O` the value was -13.3%.

As for `Cc1nn(CC(C)C)c(N(C)C)c1CNCCCNS(C)(=O)=O`, the cytotoxicity at 70.5 h turned out to be 31.6%. The figure for `Cc1nc2ccc(C(=O)N(CCC#N)CCC#N)cc2nc1C` is 11.6%; for `COCCOCC(=O)NC(C#N)c1cccc(Cl)c1Cl` (stereo not given) it is -6.94%. For `COCCOCC(=O)NC(C#N)c1ccccc1C` (stereo not given) the value was -7.18%; for `O=C(NCCn1cccc1)C1CCCOC1` (stereo not given), -5.7%. The figure for `Cn1cc(Br)cc(NC(=O)Cc2cccs2)c1=O` is 17.9%; for `O=C(NCCCNC(=O)C1CCC1)NCCn1cccc1` it is -5.85%.

Consider `O=C(NCCNC(=O)C1CCCCC1)NCCn1cccc1`, for which the cytotoxicity at 70.5 h is -4.89%. The figure for `COc1ncc(Cl)c(NCc2ccc([S+](C)[O-])cc2)n1` (stereo not given) is -0.908%. For `CC1CCCN(C(=O)NCC(F)F)C1` (stereo not given) the value was -4.81%.

For `COC1CCCN(C(=O)NCC(F)F)C1` (stereo not given), the cytotoxicity at 70.5 h is -5.69%.

For the molecule `CN(Cc1ncnn1C)c1ccnc(Cc2ccccc2)n1`, the cytotoxicity at 70.5 h is -2.06%.

With `CCN(CC1CCOC1)C(=O)c1cc(OC)c2c(c1)OCCO2` (stereo not given), the cytotoxicity at 70.5 h worked out at 0.516%.

Take `CCN(CC1CCOC1)C(=O)c1cc(Cl)c2c(c1)OCO2` (stereo not given): the cytotoxicity at 70.5 h came out at 26.7%. The figure for `Cc1nn(CC(C)C)c(N(C)C)c1CNCCS(C)(=O)=O` is 5.47%. For `CC(=O)N(Cc1ccsc1)c1ccccc1`, the cytotoxicity at 70.5 h was -7.44%. The figure for `CN(Cc1ccccc1)CC(C)(C)NC(=O)c1cnns1` is -0.0616%; for `COCCOCC(=O)NC(C#N)c1c(F)cccc1Cl` (stereo not given) it is 20.7%. Regarding `Cc1cc(C)cc(CN2CCCC2c2noc(C)n2)c1` (stereo not given), the cytotoxicity at 70.5 h is 0.367%. For `CN(Cc1ccccc1)CC(C)(C)NC(=O)c1cnccn1` the value was -0.0333%. Consider `O=C(C1CCCN(Cc2ccccc2)C1)N1CCc2sccc2C1` (stereo not given), for which the cytotoxicity at 70.5 h was found to be 31%. For `Cc1nc(C2CCCN2Cc2cc(Cl)c3c(c2)OCO3)no1` (stereo not given) the value was -4.26%. As to `CC(C)=CCS(=O)(=O)Cc1nc(C(C)C)no1`, the cytotoxicity at 70.5 h is -11.6%.

Turning to `Cc1nc2cc(C(=O)N(CCN(C)C)CCN(C)C)ccc2n1C`, the cytotoxicity at 70.5 h is -7.57%.

Consider `CN(C)c1nccc(N(C)Cc2ncnn2C)n1`, for which the cytotoxicity at 70.5 h is -3.04%. For `Cc1nc(CN2CCCN(C(=O)c3ccn(C)c(=O)c3)CC2)cs1` the value was 30.7%. As for `CNC(=O)NC(C)c1nc(-c2ccccc2)c[nH]1` (stereo not given), the cytotoxicity at 70.5 h is -3.67%. For `CN(CCC#N)C(=O)CN(C1CC1)C1CCc2ccccc21` (stereo not given) the value was 0.586%; for `Cc1nc(CCNC(=O)NC(C)c2ccc3c(c2)OCCO3)cs1` (stereo not given), -3.72%. With `CC(NC(=O)CCS(=O)(=O)C1CCCC1)c1nc(-c2ccccc2)c[nH]1` (stereo not given), the cytotoxicity at 70.5 h was -3.16%. With `COc1ccccc1CNC(=O)CNc1ccccc1C(C)=O`, the cytotoxicity at 70.5 h was -1.58%. The figure for `NC(=O)C1CCCN1C1CCN(C(=O)c2cccc3c2OCO3)CC1` (stereo not given) is -0.518%; for `CCOc1ccc(C(F)(F)F)cc1NC(=O)N1CCNC(=O)C1` it is -1.6%; for `COCCN1CC(C(=O)Nc2ccc3c(c2)CCC(=O)N3C)CC1=O` (stereo not given) it is 0.117%. As to `CC(C)(C)CC(=O)NS(=O)(=O)c1ccc(F)cc1C(F)(F)F`, the cytotoxicity at 70.5 h was -1.73%. On to `COCCS(=O)(=O)NC(C)c1ccccc1Cl` (stereo not given), for which the cytotoxicity at 70.5 h is -2.47%. Regarding `O=C(CCN1CCOC1=O)N(Cc1ccncc1)CC1CCCO1` (stereo not given), the cytotoxicity at 70.5 h was determined as 4.43%. For the molecule `O=C(NCCC1CCN(CC(F)(F)F)CC1)C1COCCO1` (stereo not given), the cytotoxicity at 70.5 h came out at 0.242%. As to `CC(C)C1CN(C(=O)c2ccn(C)c(=O)c2)c2ccccc2N1` (stereo not given), the cytotoxicity at 70.5 h is -0.488%. `CCOc1ccc(C(F)(F)F)cc1NC(=O)N1CCC(C(N)=O)CC1`: the cytotoxicity at 70.5 h was -4.57%. The figure for `O=C(Nc1cccn(Cc2ccc(F)cc2)c1=O)c1csnn1` is -0.164%. In the case of `CC1CN(Cc2ccccc2)CCCN1CCS(C)(=O)=O` (stereo not given), the cytotoxicity at 70.5 h was -2.05%. For `Cc1n[nH]c(C2CN(Cc3csc(C4CC4)n3)CCO2)n1` (stereo not given), the cytotoxicity at 70.5 h is -7.97%. The figure for `CC(Nc1cccc(Oc2ccc(C#N)cn2)c1)C(=O)NC1CC1` (stereo not given) is -6.13%; for `Cc1nc(-c2ccc(Cl)s2)sc1C(=O)O` it is 1.47%. On to `NC(=O)c1ccc(S(=O)(=O)NCCc2ccccn2)cc1`, for which the cytotoxicity at 70.5 h is 1.11%. Consider `CNC(=O)c1ccc(S(=O)(=O)NCCc2ccccn2)cc1`, for which the cytotoxicity at 70.5 h amounted to 1.59%. With `CC(CN1CCOCC1)NC(=O)c1cccc2cn[nH]c12` (stereo not given), the cytotoxicity at 70.5 h was -3.84%. Regarding `c1ccc2sc(NCC3(N4CCOCC4)CCSC3)nc2c1` (stereo not given), the cytotoxicity at 70.5 h is -4.14%. For `COc1ncccc1CNC(=O)C1CC(=O)N(C)C1` (stereo not given) the value was 0.32%; for `CC(NC(=O)c1ccc(CS(C)(=O)=O)o1)c1ccc(F)c(F)c1` (stereo not given), -3.42%; for `Cc1ccc(NCc2ncc(C(C)(C)C)o2)c(Cl)c1`, 1.61%. Take `Cc1cc(NCCS(C)(=O)=O)nc2ccccc12`: the cytotoxicity at 70.5 h was -1.98%. For `CS(=O)(=O)CCOCCNc1ccc(Br)cn1`, the cytotoxicity at 70.5 h was -3.34%. For `N#Cc1ccc(-c2nnc(CSCCN3CCOCC3)o2)cc1` the value was -5.77%; for `OC1CCN(Cc2ccc(CNc3ccc(Cl)cn3)cc2)CC1`, -0.577%; for `Cc1n[nH]c(C)c1CNC(=O)N(Cc1ccccc1)CC(C)(C)O`, -3.61%. The figure for `CNC(=O)c1c(C)cccc1NCc1nnc(C2CC2)o1` is -2.15%. As to `Cc1cc(NCCCNS(C)(=O)=O)nc2ccccc12`, the cytotoxicity at 70.5 h was found to be 2.5%.

On to `CCc1cnc(CCNC(=O)N2CCCC(c3ncc[nH]3)C2)s1` (stereo not given), for which the cytotoxicity at 70.5 h amounted to 1.32%. For `Cc1ncc(COc2cccc3c2NC(=O)CO3)s1` the value was 14.5%; for `Clc1ccccc1-c1nnc(CSCCN2CCOCC2)o1`, -2.19%; for `CC(C)c1nc(COc2cccc3c2NC(=O)CO3)cs1`, 13.8%.

Consider `CCc1nnc2n1CCN(CC(O)CN1CCC(C)CC1)C2` (stereo not given), for which the cytotoxicity at 70.5 h stood at 2.99%.

In the case of `CNC(=O)c1c(C)cccc1NCc1noc(C2CC2)n1`, the cytotoxicity at 70.5 h was -2.54%.

Consider `CC(C)(C)c1cnc(CNc2cccc(Cn3cnnc3)c2)o1`, for which the cytotoxicity at 70.5 h was -2.54%. Consider `CCC(CC)CNCC1(S(C)(=O)=O)CCOCC1`, for which the cytotoxicity at 70.5 h is -3.95%.

Take `Cc1cnc(CNC(=O)N(Cc2ccccc2)CC(C)(C)O)s1`: the cytotoxicity at 70.5 h was -3.13%.

As to `Cc1nc(CNC(=O)N(Cc2ccccc2)CC(C)(C)O)oc1C`, the cytotoxicity at 70.5 h was -3.06%.

Turning to `CCc1cnc(CNC(=O)N2CCCC(c3ncc[nH]3)C2)s1` (stereo not given), the cytotoxicity at 70.5 h is -4.75%. For `CC(NCCN1CCC(N(C)C)CC1)c1ccc(Cl)s1` (stereo not given) the value was 14.9%; for `O=C(CN1CCOCC1CC(=O)c1ccco1)NCc1ccccn1` (stereo not given), 2.07%. The figure for `COc1ccc(S(=O)(=O)NCC(N)c2ccccc2)c(C)c1` (stereo not given) is -5.68%; for `NC(CC1CCCC1)c1ccccc1` (stereo not given) it is 0.203%.

The values above are taken from ChEMBL document CHEMBL3507680, “University of Dundee, Gates Library screen for HepG2 cell viability”.
